Data as given in US20050203164A1, “Use of acylaminoalkenylene-amide derivatives in functional motility disorders of the viscera” (priority 2002, published 2005).
No end group written: not given here.

Assays:
conscious guinea pigs [1] = assay: colonic tissue irritation (acetic acid)-induced visceral hypersensitivity, visceromotor response to colorectal distension; type: in vivo, guinea pig; settings: p<0.05 ANOVA post-hoc Dunnett's test
Description: (§1) In conscious guinea pigs, two experimental paradigms are applied to induce visceral hypersensitivity, i) restraint stress (immobilization of the animals in a tube) and ii) colonic tissue irritation (colonic instillation of acetic acid, 0.6% in saline, 1.5 ml, 2 cm proximal to the anus). Colorectal distension is performed by inflating a balloon to a net pressure (at the colonic wall) of 20 mmHg (26.7 mbar) for 10 minutes before and following induction of visceral hypersensitivity. During the distension period the visceromotor response, i.e. the number and quality of abdominal contractions (body arching and lifting of pelvic structures) are recorded and quantified in a blinded fashion (Al-Chaer et al., Gastroenterology 2000; 119: 1276-1285). Following the performance of baseline colorectal distension protocols, vehicle or the compound of formula II (3 and 10 mg/kg) are dosed orally one hour prior to the second colorectal distensions, which are done after the induction of visceral hypersensitivity. The effects of vehicle and the compound of formula II are assessed in 6-8 animals. […] The compound of formula II reverses the exaggerated behavioural pain responses upon colorectal balloon distensions in both restraint stress-induced and tissue irritation-induced colonic hypersensitivity.

conscious guinea pigs [2] = assay: restraint stress-induced visceral hypersensitivity, visceromotor response to colorectal distension; type: in vivo, guinea pig; settings: restraint stress-induced colonic hypersensitivity, p<0.05 ANOVA post-hoc Dunnett's test
Description: as §1

[3] = test system: isolated segments of guinea pig ileum; assay: Substance P-mediated exaggerated peristalsis in organ baths (peristaltic reflex model); type: cell-based
Source text: Substance P—mediated exaggerated peristalsis is studied in Mayflower organ baths using isolated segments of guinea pig ileum (Holzer et al., J. Pharmacol. Exp. Ther. 1995; 274: 322-328). The lumen of ileal segments is perfused with Krebs-Henseleit solution, and intraluminal pressures are continuously recorded. […] Any wave of peristaltic contractions results in a spike-like increase in intraluminal pressure and causes a partial emptying of fluid from the segment. Pressure thresholds triggering peristaltic contractions are used to quantify the effects of the compound of formula II.

[4] = test system: submucosalmucosa preparations of guinea pig colon; assay: epithelial secretion (electrogenic chloride secretion), Ussing chamber short circuit currents; type: cell-based
Description: Epithelial secretion is tested in submucosalmucosa preparations of guinea pig colon. Using Ussing chamber techniques (Frieling et al., Naunyn Schmiedebergs Arch. Pharmacol. 1999; 359: 71-79) short circuit currents are recorded, and epithelial secretion (electrogenic chloride secretion) is stimulated via cumulative treatment with substance P (0.1 nM up to 10 μM); it triggers secretion (increases in short circuit currents) in a concentration-dependent fashion (pD2=7.50 ).

[5] = 3 mg/kg p.o. one hour prior to distension
[6] = 10 mg/kg p.o. one hour prior to distension

Row | Compound | reversal of exaggerated behavioural pain responses upon colorectal balloon distension (conscious guinea pigs [1]; [5]) | reversal of exaggerated behavioural pain responses upon colorectal balloon distension (conscious guinea pigs [1]; [6]) | reversal of exaggerated behavioural pain responses upon colorectal balloon distension (conscious guinea pigs [2]; [5]) | reversal of exaggerated behavioural pain responses upon colorectal balloon distension (conscious guinea pigs [2]; [6]) | apparent pA2, competitive inhibition of substance P-evoked exaggerated peristalsis ([3]; 30 nM) | apparent pA2, competitive inhibition of substance P-evoked exaggerated peristalsis ([3]; 100 nM) | pA2 (Schild plot analysis), competitive inhibition of substance P-induced electrogenic chloride secretion ([4]; 30 nM, 100 nM and 300 nM) | pD2, lowering of pressure thresholds triggering peristaltic contractions ([3]; cumulative application 1 nM up to 30 μM) | pD2, stimulation of secretion (increases in short circuit currents) ([4]; cumulative treatment 0.1 nM up to 10 μM)
1 | CN(C(=O)c1cc(C(F)(F)F)cc(C(F)(F)F)c1)[C@@H](/C=C/C(=O)N[C@@H]1CCCCNC1=O)Cc1ccc(Cl)c(Cl)c1 [compound of formula II, (4R)-4-[N′-methyl-N′-(3,5-bistrifluoromethylbenzoyl)amino]-4-(3,4-dichlorobenzyl)-but-2-enoic acid N-[(R)-epsilon-caprolactam-3-yl]-amide] | statistically significant | statistically significant | statistically significant | statistically significant | 7.35 | 7.23 | 7.94 |  | 
2 | substance P: agonist applied cumulatively to evoke exaggerated peristalsis and epithelial chloride secretion (RPKPQQFFGLM; ends and bridges not checked; UniProt P20366 58-68, looked up) [reference compound] |  |  |  |  |  |  |  | 7.20 | 7.50
